Read-outs that look alike come from different tables or passages of the source. Marks after values point to notes of the source that are not given here.
Key:
[1] = test system: H929 human plasmacytoma xenografts; details: vs vehicle; cited from earlier work
[2] = test system: plasma soluble VEGFR2 (sVEGFR2); assay: Plasma soluble VEGFR2 ELISA; type: in vivo, human; details: cycle 1, day 28 (95% CI 5,086, 6,113); baseline cycle 1 day 1 8,419 pg/mL; P < 0.001
[3] = test system: patients with advanced solid tumors
[4] = cohort 1, 60 mg/m^2, 7 patients
[5] = cohort 2, 80 mg/m^2, 4 patients
[6] = cohort 3, 120 mg/m^2, 3 patients
[7] = cohort 4, 200 mg/m^2, 7 patients
[8] = cohort 5, 160 mg/m^2, 8 patients
[9] = expansion, 160 mg/m^2, 38 patients
[10] = treatment-related, worst grade per patient, all cycles, N = 67

Which results are given for `Cc1cc(Nc2cc(N3CCN(C)CC3)nc(/C=C/c3ccccc3)n2)n[nH]1` [ENMD-2076]?
Tumor growth [1]: Dose-dependent inhibition of tumor growth; Mean plasma sVEGFR2 [2]: 5,600 pg/mL; Patients with grade 3 neutropenia requiring dose delay and reduction ([3]; 200 mg/m^2, 3 of 7): 43%; Patients with neutropenia ([3]; 200 mg/m^2 during dose escalation, 4 of 7): 57%; Rate of grade ≥ 3 neutropenia ([3]; 46 patients treated at 160 mg/m^2 (2/46)): 4%; Rate of grade ≥ 3 fatigue ([3]; 46 patients treated at 160 mg/m^2 (3/46)): 7%; Rate of grade ≥ 3 hypertension ([3]; 46 patients treated at 160 mg/m^2 (11/46)): 24%; Patients with adverse events meeting DLT criteria ([3]; MTD expansion, 12/38, 16 events): 32%; Patients requiring dose reduction ([3]; MTD expansion, 14/38): 37%; Patients with dose delays ([3]; MTD expansion, 24/38): 63%; Adrenal insufficiency ([3]; all patients): not observed; Patients requiring dose reduction due to toxicity ([3]; at the MTD of 160 mg/m^2): 33%; Patients with hypothyroidism ([3]; both in the expanded 160 mg/m^2 cohort): 2 patients; No. of patients with DLT (cycle 1) [3, 4]: 1 ^†; No. of patients with dose delays [3, 4]: 2 (29%); No. patients with dose reductions [3, 4]: 1 (14%); No. of patients with DLT (cycle 1) [3, 5]: 0; No. of patients with dose delays [3, 5]: 3 (75%); No. patients with dose reductions [3, 5]: 1 (25%); No. of patients with DLT (cycle 1) [3, 6]: 0; No. of patients with dose delays [3, 6]: 1 (33%); No. patients with dose reductions [3, 6]: 0; No. of patients with dose delays [3, 7]: 7 (100%); No. patients with dose reductions [3, 7]: 3 (43%); No. of patients with dose delays [3, 8]: 3 (38%); No. patients with dose reductions [3, 8]: 1 (13%); Patients with fatigue of grade 3 to 4 severity ([3]; expanded 160 mg/m^2 cohort): 2 patients; Patients with tooth discoloration ([3]; expanded 160 mg/m^2 cohort): Four; Patients with grade 3/4 neutropenia ([3]; expanded 160 mg/m^2 cohort, 2 of 38): 5%; Patients with grade 1/2 neutropenia ([3]; expanded 160 mg/m^2 cohort, 3 of 38): 8%; Patients with fatigue ([3]; expanded 160 mg/m^2 cohort, 12/38): 32%; No. of patients with DLT (met the definition of DLT) [3, 9]: 12 ^§; No. of patients with dose delays [3, 9]: 24 (63%); No. patients with dose reductions [3, 9]: 14 (37%); Patients in whom hypertension resulted in dose delay or reduction ([3]; in vivo): 16%; Recommended phase 2 dose ([3]; oral once daily, continuous dosing): 160 mg/m^2; Maximum tolerated dose (MTD) ([3]; oral, continuous once daily dosing): 160 mg/m^2; Median time to onset of hypertension following initial dosing ([3]; range 2–60 days): 14 days; Patients with hypertension of grade 3/4 severity ([3]; total patients): 21%; Anorexia, any grade [3, 10]: 24%; Anorexia, grade 3, No. of patients [3, 10]: 0; Anorexia, grade 4, No. of patients [3, 10]: 0; Constipation, any grade [3, 10]: 15%; Constipation, any grade, No. of patients [3, 10]: 10; Constipation, grade 3, No. of patients [3, 10]: 0; Constipation, grade 4, No. of patients [3, 10]: 0; Dehydration, any grade, No. of patients [3, 10]: 12; Dehydration, grade 3 [3, 10]: 1%; Dehydration, grade 3, No. of patients [3, 10]: 1; Dehydration, grade 4, No. of patients [3, 10]: 0; Diarrhea, any grade, No. of patients [3, 10]: 17; Diarrhea, grade 3 [3, 10]: 3%; Diarrhea, grade 3, No. of patients [3, 10]: 2; Diarrhea, grade 4, No. of patients [3, 10]: 0; Dysgeusia, any grade [3, 10]: 10%; Dysgeusia, any grade, No. of patients [3, 10]: 7; Dysgeusia, grade 3, No. of patients [3, 10]: 0; Dysgeusia, grade 4, No. of patients [3, 10]: 0; Dyspnea, any grade, No. of patients [3, 10]: 8; Dyspnea, grade 3 [3, 10]: 4%; Dyspnea, grade 3, No. of patients [3, 10]: 3; Dyspnea, grade 4, No. of patients [3, 10]: 0; Fatigue, any grade [3, 10]: 31%; Fatigue, any grade, No. of patients [3, 10]: 21; Fatigue, grade 3 [3, 10]: 3%; Fatigue, grade 3, No. of patients [3, 10]: 2; Fatigue, grade 4, No. of patients [3, 10]: 0; Glossodynia, any grade, No. of patients [3, 10]: 11; Glossodynia, grade 3, No. of patients [3, 10]: 0; Glossodynia, grade 4, No. of patients [3, 10]: 0; Hypertension, any grade, No. of patients [3, 10]: 37; Hypertension, grade 3, No. of patients [3, 10]: 12; Hypertension, grade 4 [3, 10]: 3%; Hypertension, grade 4, No. of patients [3, 10]: 2; Mucositis, any grade [3, 10]: 15%; Mucositis, any grade, No. of patients [3, 10]: 10
